In paper PMC5310657, “Effects of an unusual poison identify a lifespan role for Topoisomerase 2 in Saccharomyces cerevisiae” (Aging (Albany NY), 2017):

Key:
Format in all cases: biochemical
[1] = target: T1, yeast topoisomerase 2 (yTop2) (Saccharomyces cerevisiae, UniProt P06786); assay: in vitro pUC18 plasmid linearization (DNA cleavage) assay; supported by TOP2 overexpression hypersensitivity and resistant top2 mutants
T1 construct: gene TOP2
T1 sequence (P06786 1-1428): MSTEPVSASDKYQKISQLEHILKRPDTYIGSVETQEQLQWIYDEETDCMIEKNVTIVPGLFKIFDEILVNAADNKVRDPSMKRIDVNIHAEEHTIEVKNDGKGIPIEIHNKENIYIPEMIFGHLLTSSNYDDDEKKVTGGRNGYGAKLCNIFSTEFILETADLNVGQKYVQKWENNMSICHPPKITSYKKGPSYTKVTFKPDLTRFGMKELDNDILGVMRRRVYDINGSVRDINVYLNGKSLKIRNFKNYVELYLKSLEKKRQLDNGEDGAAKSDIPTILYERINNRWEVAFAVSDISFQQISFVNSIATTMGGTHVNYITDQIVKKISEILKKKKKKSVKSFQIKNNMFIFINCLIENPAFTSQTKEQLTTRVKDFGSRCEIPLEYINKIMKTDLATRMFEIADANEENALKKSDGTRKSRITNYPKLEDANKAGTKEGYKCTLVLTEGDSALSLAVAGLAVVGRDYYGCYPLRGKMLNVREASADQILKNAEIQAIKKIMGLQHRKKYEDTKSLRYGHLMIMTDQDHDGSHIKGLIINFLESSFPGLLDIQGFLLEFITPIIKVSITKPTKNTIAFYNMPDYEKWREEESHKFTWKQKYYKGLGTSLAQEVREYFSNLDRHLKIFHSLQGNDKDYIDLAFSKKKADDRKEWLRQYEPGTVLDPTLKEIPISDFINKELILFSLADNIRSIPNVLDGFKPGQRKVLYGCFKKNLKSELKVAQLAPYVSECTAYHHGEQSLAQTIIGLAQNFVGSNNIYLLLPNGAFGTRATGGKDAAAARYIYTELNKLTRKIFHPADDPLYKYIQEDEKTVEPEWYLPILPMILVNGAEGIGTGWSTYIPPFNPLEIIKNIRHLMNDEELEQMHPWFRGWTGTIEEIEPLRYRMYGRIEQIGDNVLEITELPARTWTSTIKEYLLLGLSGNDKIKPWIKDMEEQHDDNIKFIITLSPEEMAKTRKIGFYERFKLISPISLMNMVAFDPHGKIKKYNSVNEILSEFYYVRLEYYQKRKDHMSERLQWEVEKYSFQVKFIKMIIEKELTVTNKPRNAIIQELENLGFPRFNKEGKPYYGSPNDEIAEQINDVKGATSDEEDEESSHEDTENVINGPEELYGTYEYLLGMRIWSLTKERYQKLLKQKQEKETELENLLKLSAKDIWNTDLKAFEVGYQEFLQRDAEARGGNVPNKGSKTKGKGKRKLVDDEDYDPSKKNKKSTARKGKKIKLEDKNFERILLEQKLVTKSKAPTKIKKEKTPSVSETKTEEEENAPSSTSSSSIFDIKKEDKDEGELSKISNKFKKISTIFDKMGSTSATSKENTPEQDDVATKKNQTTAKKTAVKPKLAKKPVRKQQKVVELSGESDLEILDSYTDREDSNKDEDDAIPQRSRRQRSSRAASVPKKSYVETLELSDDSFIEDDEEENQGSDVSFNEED

[2] = target: T2, human Top2α (Homo sapiens, UniProt P11388); assay: kinetoplast DNA decatenation assay with purified human TOP2-α
T2 construct: gene TOP2A
T2 sequence (P11388 whole entry): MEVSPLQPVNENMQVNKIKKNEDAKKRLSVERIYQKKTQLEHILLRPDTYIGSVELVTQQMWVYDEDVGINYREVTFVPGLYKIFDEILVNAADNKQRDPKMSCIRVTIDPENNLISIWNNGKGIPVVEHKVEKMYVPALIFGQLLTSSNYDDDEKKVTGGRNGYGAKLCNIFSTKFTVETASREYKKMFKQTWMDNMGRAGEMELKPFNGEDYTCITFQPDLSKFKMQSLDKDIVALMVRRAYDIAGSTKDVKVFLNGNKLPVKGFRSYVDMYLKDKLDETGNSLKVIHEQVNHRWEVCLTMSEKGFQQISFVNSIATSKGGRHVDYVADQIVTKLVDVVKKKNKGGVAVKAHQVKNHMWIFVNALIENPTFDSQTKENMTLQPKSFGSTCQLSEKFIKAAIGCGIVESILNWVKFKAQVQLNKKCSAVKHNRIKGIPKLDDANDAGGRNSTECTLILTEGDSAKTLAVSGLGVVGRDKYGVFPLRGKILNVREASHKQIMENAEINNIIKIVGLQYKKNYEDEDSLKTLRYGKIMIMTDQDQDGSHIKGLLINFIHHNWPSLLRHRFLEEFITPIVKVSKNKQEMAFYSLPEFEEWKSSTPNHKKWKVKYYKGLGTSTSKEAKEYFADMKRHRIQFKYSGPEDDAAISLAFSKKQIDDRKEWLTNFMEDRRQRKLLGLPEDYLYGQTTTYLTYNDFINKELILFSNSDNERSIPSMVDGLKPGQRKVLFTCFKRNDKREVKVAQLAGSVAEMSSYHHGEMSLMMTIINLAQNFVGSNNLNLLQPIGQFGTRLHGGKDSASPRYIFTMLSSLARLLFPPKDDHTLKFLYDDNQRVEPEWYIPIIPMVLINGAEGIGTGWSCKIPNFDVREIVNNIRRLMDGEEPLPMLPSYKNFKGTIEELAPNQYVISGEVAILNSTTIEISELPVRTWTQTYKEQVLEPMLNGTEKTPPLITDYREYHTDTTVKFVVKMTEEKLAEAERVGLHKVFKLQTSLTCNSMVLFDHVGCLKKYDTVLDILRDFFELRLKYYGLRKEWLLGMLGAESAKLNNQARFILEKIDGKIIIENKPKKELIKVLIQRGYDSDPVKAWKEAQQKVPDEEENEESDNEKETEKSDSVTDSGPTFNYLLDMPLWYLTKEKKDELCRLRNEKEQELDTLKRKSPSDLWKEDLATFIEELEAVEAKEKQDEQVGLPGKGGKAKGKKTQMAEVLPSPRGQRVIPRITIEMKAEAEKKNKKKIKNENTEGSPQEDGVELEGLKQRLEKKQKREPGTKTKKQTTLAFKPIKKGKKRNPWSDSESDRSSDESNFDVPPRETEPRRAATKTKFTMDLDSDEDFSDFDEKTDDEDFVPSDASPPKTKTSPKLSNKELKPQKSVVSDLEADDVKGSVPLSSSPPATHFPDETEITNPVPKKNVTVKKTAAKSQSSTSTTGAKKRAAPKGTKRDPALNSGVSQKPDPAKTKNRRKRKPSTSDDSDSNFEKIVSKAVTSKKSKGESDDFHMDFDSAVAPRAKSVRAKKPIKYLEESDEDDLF

[3] = target: T1, yeast topoisomerase 2 (yTop2); assay: in vitro pUC18 plasmid linearization (DNA cleavage) assay, reference Top2 poison

c1ccc2nc3c(nc2c1)[nH]c1ccccc13 [LS1, 6H-Indolo [2,3-b] quinoxaline]
in vitro pUC18 plasmid linearization (DNA cleavage) assay; supported by TOP2 ove [1]: LS1 promotes the in vitro formation by yTop2 of DSBs in plasmid DNA (Fig. 7A & B) | IC50 [2]: 3 µM

COc1cc([C@@H]2c3cc4c(cc3[C@@H](O[C@@H]3O[C@@H]5CO[C@@H](C)O[C@H]5[C@H](O)[C@H]3O)[C@H]3COC(=O)[C@H]23)OCO4)cc(OC)c1O [ETOP, etoposide]
in vitro pUC18 plasmid linearization (DNA cleavage) assay, reference Top2 poison [3]: formation by yTop2 of DSBs in plasmid DNA (Fig. 7A & B), albeit less efficiently than etoposide
